These are literature values, as cited in patent publication US20070298029A1, “Treatment of Neurodegenerative Diseases by the Use of Degs Inhibitors” (priority 2004, published 2007).

Each structure is given as a SMILES string.

The target in the series is T1, dihydroceramide desaturase (Rattus norvegicus, UniProt Q5XIF5).
T1 sequence (Q5XIF5 1-323): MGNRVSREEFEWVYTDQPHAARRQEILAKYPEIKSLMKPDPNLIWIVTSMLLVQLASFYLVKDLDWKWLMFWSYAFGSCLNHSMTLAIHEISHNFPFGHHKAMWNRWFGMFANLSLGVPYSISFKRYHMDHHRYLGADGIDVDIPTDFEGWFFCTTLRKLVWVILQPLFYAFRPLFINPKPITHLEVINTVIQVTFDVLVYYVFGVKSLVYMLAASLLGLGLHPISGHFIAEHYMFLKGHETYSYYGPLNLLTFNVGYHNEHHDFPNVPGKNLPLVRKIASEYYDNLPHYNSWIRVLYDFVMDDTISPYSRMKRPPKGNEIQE
To be noted: competitive inhibitor.

For `CCCCCCCCCCCCCC1=C([C@H](O)[C@@H](CO)NC(=O)CCCCCCC)C1` [GT11, N-[(1R,2S)-2-hydroxy-1-hydroxymethyl-2-(2-tridecyl-1-cyclopropenyl)ethyl]octanamide], the Ki was 6 µM.
